The test system of data set [1] is Candida albicans. Kind of data set: In vivo antifungal activity against Candida albicans 901 infected in mouse model assessed as decrease in IDO protein expression level at 5 microg/g, iv pre-infected with fungi by intravenous injection followed by compound administration and measured on day 8 in presence of 1-MT by Western blotting analysis. In kind it is functional, organism-based. The following applies: dose 5.0 µg/g, time 8.0 day.

Data set [2] has as its system Candida albicans. In words: In vivo antifungal activity against Candida albicans 901 infected in mouse model assessed as reduction in genetic material content in lung at 5 microg/g, iv pre-infected with fungi by intravenous injection followed by compound administration and measured on day 8 by H and E staining based analysis. In kind it is functional, organism-based. The following applies: dose 5.0 µg/g, time 8.0 day.

A short description of data set [3]: Toxicity in mouse infected with Candida albicans 901 assessed as change in CRE level in presence of 1-MT (reference value: 21.5 +/-1.7 umol/L). As to conditions: in vivo.
A short description of data set [4]: Toxicity in mouse infected with Candida albicans 901 assessed as change in BUN level in presence of 1-MT (reference value: 11.4 +/-1.5 mmol/L). The following applies: in vivo.
Data set [5] deals with Candida albicans. Kind of data set: In vivo antifungal activity against Candida albicans 901 infected in mouse model assessed as increase in CD4positive expression level in presence of 1-MT. Type of data set: functional, organism-based.
In data set [6] the test system is Candida albicans. In words: In vivo antifungal activity against Candida albicans 901 infected in mouse model assessed as decrease in IFN-gamma protein expression level at 5 microg/g, iv pre-infected with fungi by intravenous injection followed by compound administration and measured on day 8 in presence of BPE by Western blotting analysis. Type of data set: functional, organism-based. The following applies: dose 5.0 µg/g, time 8.0 day. (In general: A western blot detects proteins with antibodies after separation by electrophoresis.)

Data set [7] is described as follows: Toxicity in mouse infected with Candida albicans 901 assessed as change in CRE level (reference value: 21.5 +/-1.7 umol/L). As to conditions: in vivo.
In another data set the test system is A549. Kind of data set: Cytotoxicity against human A549 cells incubated for 24 hrs by CCK8 assay. Type of data set: functional, cell-based. As to conditions: A549, 24 h.
Data set [8] is described as follows: Toxicity in mouse infected with Candida albicans 901 assessed as change in AST level (reference value: 76.1 +/-4.2 IU/L). The following applies: in vivo.
In another data set the test system is Aspergillus fumigatus. In words: Antifungal activity against Aspergillus fumigatus KM 8001 assessed as fungal growth inhibition incubated for 72 hrs by broth microdilution method. Type of data set: functional.
Data set [9] has as its system Candida albicans. Kind of data set: In vivo antifungal activity against Candida albicans 901 infected in mouse model assessed as decrease in IL-2 protein expression level at 5 microg/g, iv pre-infected with fungi by intravenous injection followed by compound administration and measured on day 8 in presence of 1-MT by Western blotting analysis. Type of data set: functional, organism-based. As to conditions: dose 5.0 µg/g, time 8.0 day.

For data set [10], the system named is Candida albicans. In words: Antifungal activity against fluconazole-resistant Candida albicans 632 assessed as reduction in fungal growth incubated for 72 hrs by broth microdilution method. Type of data set: functional. On the technique in general: Broth dilution looks for growth in wells or tubes with falling amounts of substance.
Data set [11] relates to Candida albicans. Kind of data set: In vivo antifungal activity against Candida albicans 901 infected in mouse model assessed as decrease in IL-2 protein expression level at 5 microg/g, iv pre-infected with fungi by intravenous injection followed by compound administration and measured on day 8 in presence of BPE by Western blotting analysis. In kind it is functional, organism-based. As to conditions: dose 5.0 µg/g, time 8.0 day.

For data set [12], the system named is Candida albicans. In words: In vivo antifungal activity against Candida albicans 901 infected in mouse model assessed as recovery of alveolar structures to normal state in lung at 5 microg/g, iv pre-infected with fungi by intravenous injection followed by compound administration and measured on day 8 in presence of BPE by H and E staining based analysis. Type of data set: functional, organism-based. As to conditions: dose 5.0 µg/g, time 8.0 day.

The test system of a further data set is Nakaseomyces glabratus. In words: Antifungal activity against Candida glabrata assessed as fungal growth inhibition incubated for 72 hrs by broth microdilution method. Type of data set: functional.
In data set [13] the test system is Candida albicans. Kind of data set: In vivo antifungal activity against Candida albicans 901 infected in mouse model assessed as decrease in IDO protein expression level at 5 microg/g, iv pre-infected with fungi by intravenous injection followed by compound administration and measured on day 8 by Western blotting analysis. In kind it is functional, organism-based. As to conditions: dose 5.0 µg/g, time 8.0 day.

Data set [14] relates to Candida albicans. Kind of data set: In vivo antifungal activity against Candida albicans 901 infected in mouse model assessed as body weight gain at 5 microg/g, iv pre-infected with fungi by intravenous injection followed by compound administration and measured on day 8. Type of data set: functional, organism-based. The following applies: dose 5.0 µg/g, time 8.0 day.
For data set [15], the system named is Candida albicans. Kind of data set: Induction of apoptosis in Candida albicans ATCC SC5314 assessed as early apoptotic cells by V-FITC/PI staining based flow cytometric analysis (reference value: 3.51%). Type of data set: functional. For orientation: Flow cytometry measures light scatter and fluorescence of single cells or particles in a stream.
The nature of data set [16]: Toxicity in mouse infected with Candida albicans 901 assessed as change in ALT level in presence of 1-MT (reference value: 42.8 +/-3.9 IU/L). The following applies: in vivo.
The test system of data set [17] is Candida albicans. In words: Antifungal activity against fluconazole-resistant Candida albicans 901 assessed as reduction in fungal growth incubated for 72 hrs by broth microdilution method. Type of data set: functional.
The subject of data set [18] is Candida albicans. Kind of data set: Induction of apoptosis in Candida albicans ATCC SC5314 assessed as viable cells by V-FITC/PI staining based flow cytometric analysis (reference value: 93.3%). In kind it is functional.
In data set [19] the test system is Candida albicans. Kind of data set: Antifungal activity against fluconazole-resistant Candida albicans CaR assessed as reduction in fungal growth incubated for 72 hrs by broth microdilution method. In kind it is functional.

In brackets after ≈: the same amount, converted by molar mass. Activity calls are given as the source filed them. The calls are words filed in the database; no cut-off is given here.

Broadly, the IC50 is the concentration at which inhibition is half-maximal. As usually defined, the MIC50 is an inhibitory concentration at the 50% level, which refers to growth in some studies and to a panel of isolates in others. Regarding `O=C(CNC(=O)c1nc2ccc(Cl)cc2c(=O)[nH]1)NCC(=O)c1ccccc1`, the outcome in the data set on Candida albicans [1], with Candida albicans [2], in the data set with Candida albicans [5], in the data set with Candida albicans [6], in the data set on Candida albicans [9] and in the data set with Candida albicans [11] was Active. For the same compound, the outcome in the data set on Candida albicans [12], in the data set with Candida albicans [13] and in the data set on Candida albicans [14] was Active. Also, the Activity is 20.8 µmol/L in data set [3]; 10.3 mmol/L in data set [4]; 18.7 µmol/L in [7]; 63.9 IU/L in [8]; 14.9% in the data set on Candida albicans [15]; 40.2 IU/L in data set [16]. Also, the Activity in the data set on Candida albicans [18] amounted to 57.1%. This compound also registered a half-maximal inhibitory concentration (IC50) with A549 above 50 µM. Further, the MIC50 in the data set on Aspergillus fumigatus was found to be 2 µg/mL (≈ 5.01 µM); in the data set on Candida albicans [10] it was 2 µg/mL (≈ 5.01 µM); with Nakaseomyces glabratus, 2 µg/mL (≈ 5.01 µM); in the data set on Candida albicans [17], 4 µg/mL (≈ 10 µM); in the data set on Candida albicans [19] it was 2 µg/mL (≈ 5.01 µM).

The record behind these values is ChEMBL document CHEMBL6103585, “Construction and activity evaluation of novel CHS inhibitors against fungal infections” (Eur J Med Chem, 2025).
